Data published in patent publication US7604993B2, “Combined regulation of neural cell production” (Stem Cell Therapeutics Inc., priority 2001, dated 2009).
Entries after “also recorded” stand apart in the source; their conditions may differ. No end group written: not given here.

Legend:
neurospheres = test: Multipotency of neurospheres (neuron, oligodendrocyte, astrocyte derived from each neurosphere); assay type: cell-based; settings: neurospheres produced in the factor(s)
Procedure: The protocols for neural stem cell culture are described in detail in U.S. Pat. No. 5,750,376 or Shingo et al., 2001. Briefly, embryonic neural stem cells were prepared from E14 medial and lateral ganglionic eminences. Adult neural stem cells were prepared from the subventricular zone of adult mice. The tissue was cultured in basal medium containing 20 ng/ml EGF, or other growth factors as indicated in each case, to form neurospheres. The composition of the basal medium is as follows: DMEM/F12 (1:1); glucose (0.6%); glutamine (2 mM); sodium bicarbonate (3 mM); HEPES (5 mM); insulin (25 μg/ml); transferrin (100 μg/ml); progesterone ([…]); putrescine (60 μM); and selenium chloride (30 nM).
Accordingly, we compared the expandability and multipotency of neurospheres that were produced in EGF alone or EGF plus CNTF. For expandability, pass 1 neurospheres were dissociated and replated at clonal density to generate pass 2 neurospheres, and the number of pass 2 neurospheres that were derived from a single pass 1 sphere was counted. […] Therefore, neural stem cells differentiate to glial cells by default, which can be inhibited by CNTF.

[1] = system: neural stem cells in the subventricular zone; test: Subcutaneous administration, number of neural stem cells in the subventricular zone; assay type: in vivo
[2] = Forelimb inhibition test in focal ischemic injury (stroke) model; assay type: in vivo; settings: rats with focal ischemic injury; first infusion days 1-7, second infusion days 8-14
Text: (§1) Adult male Long-Evans rats (250-350 g) were obtained from Charles River Breeding Farms and were adapted to the colony for two weeks prior to any treatment. A week before surgery the rats were given a baseline testing on the behavioral tests.
The animals for the stroke study received unilateral devascularization of the sensorimotor cortex. Using Isoflurane anesthesia, the skin was incised and retracted and the overlying fascia were removed from the skull. A skull opening was made at the following coordinates, taking care not to damage the dura: AP +4.0 to −2.0; L 1.5 to 4 (the parasagittal ridge; Kolb et al., 1997). The dura was cut and retracted from the skull opening. A cotton swab soaked in sterile saline was gently rubbed across the exposed pia and the vessels were removed. A hole was then drilled in the contralateral hemisphere to provide an opening for the cannulae attached to the osmotic minipump at AP −0.5; L 1.5. […]
(§2) Six days later the animals were assessed using the behavioral test. […]
In normal rats, swimming is accomplished by propulsion from the hind limbs. […] Inhibition of the forelimbs was assessed by filming animals while swimming. […]
(§3) The animals then received various test factors, and the effects of these factors on the forelimb inhibition test and brain anatomy were assessed. […]

[3] = Forelimb asymmetry test in focal ischemic injury (stroke) model; assay type: in vivo; settings: rats with focal ischemic injury; first infusion days 1-7, second infusion days 8-14
Text: as §1
The animals for the stroke study received unilateral devascularization of the sensorimotor cortex. Using Isoflurane anesthesia, the skin was incised and retracted and the overlying fascia were removed from the skull. A skull opening was made at the following coordinates, taking care not to damage the dura: AP +4.0 to −2.0; L 1.5 to 4 (the parasagittal ridge; Kolb et al., 1997). The dura was cut and retracted from the skull opening. A cotton swab soaked in sterile saline was gently rubbed across the exposed pia and the vessels were removed. […]
as §2
Forepaw asymmetry of the animals was determined by filming them from below while in an acrylic cylinder 25 cm in diameter, on an acrylic platform. Preference was determined by separately counting the number of times in 5 minutes that an animal reared and placed the left or right forepaw on the surface of the cylinder in a gesture of postural stabilization. […]
as §3

[4] = system: migrating neuronal progenitor cells; test: Brain anatomical analysis (Cresyl Violet, Doublecortin) in focal ischemic injury (stroke) model; assay type: in vivo; settings: rats with focal ischemic injury, end of week 6
Text: The animals for the stroke study received unilateral devascularization of the sensorimotor cortex. Using Isoflurane anesthesia, the skin was incised and retracted and the overlying fascia were removed from the skull. A skull opening was made at the following coordinates, taking care not to damage the dura: AP +4.0 to −2.0; L 1.5 to 4 (the parasagittal ridge; Kolb et al., 1997). The dura was cut and retracted from the skull opening. A cotton swab soaked in sterile saline was gently rubbed across the exposed pia and the vessels were removed. A hole was then drilled in the contralateral hemisphere to provide an opening for the cannulae attached to the osmotic minipump at AP −0.5; L 1.5. An osmotic minipump was placed under the skin between the shoulder blades and a tube connected under the skin to the cannulae, which was attached to the skull with fast-drying cement. Once hemostasis had been achieved the scalp was sutured closed with 5-O sterile suture. The animals were given a single injection of Banamine (an analgesic) and returned to their home cage. Sham animals received only anesthesia, the bone opening, and the skin was incised and sutured. […] The animals then received various test factors, and the effects of these factors on the forelimb inhibition test and brain anatomy were assessed. […]

Row | Substance | glial cells generated by neurospheres, relative to those produced in EGF plus CNTF (neurospheres) [times] | delivery by subcutaneous administration to modulate the number of neural stem cells in the subventricular zone [1] | forepaw inhibition / motor function in the forelimb inhibition test [2] | recovery of forelimb asymmetry / motor function in the forelimb asymmetry test [3] | doublecortin staining / doublecortin positive cells in the brain [4]
1 | EGF: epidermal growth factor; human recombinant EGF for infusion (NSDSECPLSHDGYCLHDGVCMYIEALDKYACNCVVGYIGERCQYRDLKWWELR; UniProt P01133 971-1023, looked up) | 4 |  |  |  | 
2 | IGF-1: IGF-1, a factor said to proliferate neural stem cells |  | effectively delivered |  |  | 
3 | PACAP: pituitary adenylate cyclase activating polypeptide (HSDGIFTDSYSRYRKQMAVKKYLAAVLGKRYKQRVKNK; ends and bridges not checked; UniProt P18509 132-169, looked up) |  | effectively delivered |  |  | 
4 | growth hormone: growth hormone, first infusion days 1-7, then CSF (Group 5) |  | effectively delivered | reversed effect | improvement of motor functions; also recorded: recovered from asymmetrical forelimb usage; also recorded: improved a motor neuron-related function; also recorded: reversed effect | increased doublecortin positive cells
